Laboratory results from patent US7872041B2, “Use of rotigotine for treating and preventing Parkinson's plus syndrome” (priority 2004, dated 2011).

Key:
[1] = transdermal administration, WO 02/089777 and other authors; cited from earlier work
[2] = system: MPTP model in monkeys (macaques); test: Progressive MPTP primate model, pilot study; assay type: in vivo
Procedure: In the MPTP model used, which reflects the progressive course of dopaminergic cell destruction in primates, monkeys (macaques) were injected with subthreshold toxic doses of MPTP over several days. The parkinsonian symptoms developed in the model over a period of approximately 2 weeks. As soon as a specific degree of damage was reached, daily injections of rotigotine were provided in a formulation giving rise to a continuous plasma level over a 24 hour period. The injections of MPTP were stopped as soon as the motor activity in the controls had reduced by a specific degree (approximately 5 days later). The animals' behavior was evaluated every day. […] At the end of rotigotine application or at the end of the wash-out phase, in each case one group of animals was sacrificed and the condition of the basal ganglia investigated histologically and biochemically. The density of the nerve endings in the striatum of the treated animals was much higher than it was in the untreated animals.

MPTP mouse model [3] = test: Subacute MPTP model, dopamine transporter density in the striatum; assay type: in vivo, mice
Procedure: To induce intoxication, mice were administered 80 mg/kg of the neurotoxin 1-methyl-4-phenyl-1,2,3,6-tetrahydro-pyridine (MPTP) (in portions of 20 mg/kg in two-hourly intervals, groups 3-6 in FIGS. 1 and 2) resulting in the degeneration of about 50-60% of the neurons of the substantia nigra (maximum degeneration in group 3 in FIGS. 1 and 2). Rotigotine was administered daily in doses of 0.3, 1 or 3 mg/kg respectively over 7 days as a so-called ‘slow-release formulation’ (see embodiment 2) (groups 4-6 in FIGS. 1 and 2). A group of MPTP-treated animals (group 3) was given rotigotine-vehicle solution (see embodiment 2 without rotigotine HCl) and served as a reference. The controls were groups 1, 2 and 7, whereby group 1 is not given any treatment, group 2 is treated with the vehicle-solutions for MPTP and rotigotine, and group 7 was exclusively given rotigotine. The animals were sacrificed on day 8, their brains removed and frozen. Frozen sections were incubated with 100 pm[^125I] PE21 ([^125I]-(E)-N(3-iodoprop-2-enyl)-2β-carboxymethyl-3β-(4′-methylphenyl)-nortropane) in a phosphate buffer, pH 7.4 in order to mark the quantity of dopamine transporters still present in the striatum as an indicator of the quantity of functioning nerve endings. […] This is clear evidence of the neuroprotective properties of the substance (FIG. 1 and 2).

MPTP mouse model [4] = test: Acute MPTP model, FluoroJade staining of degenerating neurons; assay type: in vivo, mice; details: for Number of degenerating neurons: FluoroJade staining
Procedure: The results set forth below in Table 2 indicate the number of acutely degenerating neurons in the MPTP mouse model shown with FluoroJade staining with and without treatment with a single administration of rotigotine:
To induce intoxication, mice were administered 80 mg/kg of the neurotoxin 1-methyl-4-phenyl-1,2,3,6-tetrahydro-pyridine (MPTP) (in portions of 20 mg/kg at two-hourly intervals) resulting in the degeneration of approximately 50-60% of the neurons in the substantia nigra. Approximately 16 hours previously, rotigotine was added in doses of 0.3, 1 or 3 mg/kg respectively as a so-called ‘slow-release formulation’ (see embodiment 2). Diffusion and absorption latencies mean that rotigotine is optimally available when MPTP is added. Animals that were only given the vehicle solution (see embodiment 2 without rotigotine HCl) served as controls. After 24 hours, the animals were sacrificed and the brains fixed. The brain sections were stained with FluoroJade for the identification of degenerating cells. Immunohistochemical marking of the tyrosine hydroxylase was used to identify dopaminergic neurons. […] The number of the degenerating neurons was approximately 50% lower after the application of rotigotine, which is further confirmation of the neuroprotective properties of the substance (Table 2).

SMILES: CCCN(CCc1cccs1)[C@H]1CCc2c(O)cccc2C1 [rotigotine, (−)5,6,7 ,8-tetrahydro-6-[propyl[2-(2-thienyl)ethyl]amino]-1-naphthol]
- UPDRS scores [1]: improvement
- Content of preproenkephalin ([2]; after the treatment and after the wash-out phase): tendency toward normalization
- Density of the nerve endings in the striatum ([2]; treated versus untreated animals): much higher
- Motor activity of the animals ([2]; under treatment with daily injections and in the following wash-out phase): significantly improved
- Survival of the neurons and the nerve endings (MPTP mouse model [3]; 0.3, 1 or 3 mg/kg daily over 7 days, slow-release formulation): improves the survival of the neurons and the nerve endings in relation to the dose
- Dopaminergic innervation of the striatum (density of the dopamine transporter) (MPTP mouse model [3]; subacute phase after MPTP): virtually completely retained or restored
- Number of degenerating neurons (MPTP mouse model [4]; MPTP intoxication + rotigotine 0.3 mg/kg, single administration): 66.7
- Number of degenerating neurons (MPTP mouse model [4]; MPTP intoxication + rotigotine 1.0 mg/kg, single administration): 76.8
- Number of degenerating neurons (MPTP mouse model [4]; MPTP intoxication + rotigotine 3.0 mg/kg, single administration): 34.9
- Number of degenerating neurons (MPTP mouse model [4]; MPTP-vehicle + rotigotine 3.0 mg/kg (no MPTP)): 3.8
- Number of degenerating neurons lower after application of rotigotine (MPTP mouse model [4]; acute MPTP model, versus MPTP without rotigotine): approximately 50%
- Number of degenerating neurons in the mesencephalon (MPTP mouse model [4]; acute phase after MPTP, after administration of rotigotine): reduced
- Staining of the tyrosine hydroxylase (dopaminergic neurons) (MPTP mouse model [4]; treated versus untreated animals, 24 hours after MPTP): did not identify any differences between the treated and untreated animals
